From patent US4345069A, “Deformyltylosin derivatives” (Toyo Jozo Kabushiki Kaisha, priority 1979, dated 1982)
≈ marks a conversion by molar mass, not a printed value. Where two headings read alike, the source gives them in different places.

Tests used:
Test in all cases: Minimum inhibitory concentration
Assay type in all cases: cell-based
[1] = tested on: Streptococcus pyogenes N.Y.5
[2] = tested on: Staphylococcus aureus ATCC 6538p; conditions: ATCC6538P
[3] = tested on: Staphylococcus aureus MS353 C36; conditions: MS353C36, read-out: Minimum Inhibitory Concentration
Source text: (§1) Minimum Inhibitory Concentration (μg/ml)
*erythromycin resistant strain

[4] = tested on: Staphylococcus aureus MS353
[5] = tested on: Staphylococcus aureus 0126
Source text: as §1
**erythromycin and oreandomycin resistant strain.

[6] = Staphylococcus aureus 0126, erythromycin and oreandomycin resistant strain, read-out: Minimum Inhibitory Concentration
[7] = Staphylococcus aureus, 0126, read-out: Minimum Inhibitory Concentration

Structure (SMILES) | MIC [1] | MIC [2] | MIC [3] | MIC [4] | MIC [5, 6] | MIC [5, 7]
CCC1OC(=O)CC(O)C(C)C(OC2OC(C)C(OC3CC(C)(O)C(O)C(C)O3)C(N(C)C)C2O)C(C)CC(C)C(=O)C=CC(C)=CC1COC1OC(C)C(O)C(OC)C1OC (stereo not drawn) [19-deformyltylosin] | 1.6 µg/mL (≈ 1.8 µM) | 1.6 µg/mL (≈ 1.8 µM) | 0.8 µg/mL (≈ 0.901 µM) | 1.6 µg/mL (≈ 1.8 µM) |  | 
CCC1OC(=O)CC(O)C(C)C(OC2OC(C)C(O)C(N(C)C)C2O)C(C)CC(C)C(=O)C=CC(C)=CC1COC1OC(C)C(O)C(OC)C1OC (stereo not drawn) [19-deformyl-4'-demycarosyltylosin] | 0.1 µg/mL (≈ 0.134 µM) | 0.2 µg/mL (≈ 0.269 µM) | 0.2 µg/mL (≈ 0.269 µM) | 0.2 µg/mL (≈ 0.269 µM) | 0.8 µg/mL (≈ 1.08 µM) | 
CCC1OC(=O)CC(OC(=O)Cc2ccccc2)C(C)C(OC2OC(C)C(O)C(N(C)C)C2O)C(C)CC(C)C(=O)C=CC(C)=CC1COC1OC(C)C(O)C(OC)C1OC (stereo not drawn) [19-deformyl-4'-demycarosyl-3-phenylacetyltylosin] | ≤ 0.05 µg/mL | 0.2 µg/mL (≈ 0.232 µM) | 0.1 µg/mL (≈ 0.116 µM) | 0.2 µg/mL (≈ 0.232 µM) |  | 0.4 µg/mL (≈ 0.464 µM)
CC[C@H]1OC(=O)C[C@@H](O)[C@H](C)[C@@H](O[C@@H]2O[C@H](C)[C@@H](O[C@H]3C[C@@](C)(O)[C@@H](O)[C@H](C)O3)[C@H](N(C)C)[C@H]2O)[C@@H](CC=O)C[C@@H](C)C(=O)/C=C/C(C)=C/[C@@H]1CO[C@@H]1O[C@H](C)[C@@H](O)[C@@H](OC)[C@H]1OC [tylosin] | 0.4 µg/mL (≈ 0.437 µM) | 1.6 µg/mL (≈ 1.75 µM) | 1.6 µg/mL (≈ 1.75 µM) | 3.1 µg/mL (≈ 3.38 µM) |  | 1.6 µg/mL (≈ 1.75 µM)
CCC1CC(C)C(=O)C=CC(C)=CC(COC2OC(C)C(O)C(OC)C2OC)C(CC)OC(=O)CC(O)C(C)C1OC1OC(C)C(O)C(N(C)C)C1O (stereo not drawn) [20-deoxo-4'-demycarosyltylosin] | 0.2 µg/mL (≈ 0.264 µM) | 0.2 µg/mL (≈ 0.264 µM) | 0.1 µg/mL (≈ 0.132 µM) | 0.2 µg/mL (≈ 0.264 µM) |  | 
CCC1OC(=O)C=CC(C)C(OC2OC(C)C(O)C(N(C)C)C2O)C(C)CC(C)C(=O)C=CC(C)=CC1COC1OC(C)C(O)C(OC)C1OC (stereo not drawn) [19-deformyl-2,3-didehydro-3-dehydroxy-4'-demycarosyltylosin] | 0.2 µg/mL (≈ 0.276 µM) | 0.2 µg/mL (≈ 0.276 µM) | 0.4 µg/mL (≈ 0.551 µM) | 0.2 µg/mL (≈ 0.276 µM) | 1.6 µg/mL (≈ 2.2 µM) | 
CC[C@H]1OC(=O)[C@H](C)[C@@H](O[C@H]2C[C@@](C)(OC)[C@@H](O)[C@H](C)O2)[C@H](C)[C@@H](O[C@@H]2O[C@H](C)C[C@H](N(C)C)[C@H]2O)[C@](C)(O)C[C@@H](C)C(=O)[C@H](C)[C@@H](O)[C@]1(C)O [erythromycin, reference compound] | ≤ 0.05 µg/mL | 0.2 µg/mL (≈ 0.273 µM) | > 100 µg/mL | 0.2 µg/mL (≈ 0.273 µM) |  | > 100 µg/mL
